Measured values taken from US6448240B1, “Synergistic fungicidal and/or bactericidal composition” (Aventis CropScience, S.A., priority 1997, dated 2002).

Tested on: Plasmopara viticola (grapevine downy mildew)
Assay: In-vivo test of famoxadone and fosetyl-aluminium on grapevine downy mildew, preventative treatment 5 days before inoculation
Set-up: species or system Plasmopara viticola on Vitis vinifera cv. Chardonnay
Settings: 5-day-preventative spray on grapevine cuttings; evaluated 7 days after inoculation; 3 replications
Description: Example 1: In-vivo test of the combination of famoxadone and fosetyl-aluminium on Plasmopara viticola (grapevine downy mildew) by preventative treatment 5 days before inoculation. Dispersible granules of 50% compound A (famoxadone) and dispersible granules of 80% compound B (fosetyl-aluminium) are used. Dilute suspensions are prepared from these compositions by diluting them with water, and the two liquids are mixed in such a way that different ratios of the two products famoxadone and fosetyl are obtained. The A/B ratios studied were selected between 1/10 and 1/1, that is to say equalling 0.1-0.2 and 1. Grapevine cuttings (Vitis vinifera), cv. Chardonnay are grown in pots. When these plants are 2 months old (8- to 10-leaf stage, height 10 to 15 cm), they are treated by being sprayed with the suspension above. […] These spores are suspended at 100,000 units per cm^3 of inoculum. Inoculation is performed by spraying the underside of the leaves with the inoculum. The inoculated plants are then incubated for seven days at 20-22° C. and a relative humidity of 90-100% under natural light. The test is evaluated 7 days after inoculation by comparing the plants with the control plants.

Row | Compound | ED70 (effective dose which has a 70% control effect on the disease) [µg/mL] | ED90 (effective dose which has a 90% control effect on the disease) [µg/mL]
1 | CCO[PH](=O)O [fosetyl - aluminium, fosetyl-aluminium] | >2000 | >2000
2 | C[C@@]1(c2ccc(Oc3ccccc3)cc2)OC(=O)N(Nc2ccccc2)C1=O (racemic) [famoxadone, 5-methyl-5-(4-phenoxyphenyl)-3-(phenylamino-2,4-oxazolidinedione)] | 2 | 5.5
